Laboratory results as given in article PMC5556071, “ATR inhibition facilitates targeting of leukemia dependence on convergent nucleotide biosynthetic pathways” (Nature Communications, 2017).
“And” between values parts separate entries of the source, which are not always exact repeats. Identical values can stand only once.

Columns and labels:
[1] = system: CEM cells; test: Quantitative global proteomics (nLC-MS/MS), cells 12 h after release from G1 arrest; type: cell-based, human; set-up: key to RNR Level / dCK Level: ↓: partial decrease/inhibition; ↓↓↓: nearly complete inhibition; ↑: increase; ⟷: no change; details: for Protein expression level normalized to control (NT): Eukaryotic translation initiation factor 6 (EIF6) / Protein expression level normalized to control (NT): Ribonucleoside-diphosphate reductase subunit M2 (RRM2) / Protein expression level normalized to control (NT): Translationally-controlled tumor protein (TPT1): 12 h following release from G1 arrest, independent analyses #1-#4; for RNR Level / dCK Level: summary Fig. 2g, CEM cells
Method: (§1) To investigate the molecular mechanisms underlying the metabolic consequences of ATR and dCK inhibition, global changes in protein expression were assessed in CEM cells using quantitative nano-LC tandem MS (nLC-MS/MS) (Fig. 2a). Chemical isotope coding following reductive dimethylation of peptide N-termini and lysine primary amines with differential stable isotopes (light:medium:heavy) was used to compare expression of experimental (VE-822, dCKi and VE-822 + dCKi) samples to controls (untreated, NT) by mixing equal proportions for triplex nLC-MS/MS quantitative analyses. The data set was filtered for proteins identified in all treatment groups in three independent experiments with coefficients of variation <20%. This yielded 1757 proteins with relative fold changes in treated vs. untreated cells ranging from 0.45 to 1.83. […] Protein levels of both RNR subunits, RRM1 and RRM2, as well as thymidylate synthase decreased by more than 20% following ATR inhibition (Fig. 2c). Changes in the expression of de novo enzymes observed in synchronous cells also occurred with ATR inhibition in asynchronous CEM cells (Fig. 2d and Supplementary Data 3), thereby arguing against the possibility of experimental artifacts introduced by Palbociclib-mediated cell cycle synchronization. The reduction in RRM2 levels induced by ATR inhibition was accompanied by an ~ 50% decrease in the phosphorylation of RRM2 on threonine 33 (pT33) (Fig. 2e), a phosphosite previously linked to the RRM2 stability. […]
(§2) Proteomic analyzes. CCRF-CEM cells were treated ± with a CDK4/6 inhibitor, PD-0332991 (Selleckchem) for 18 h to arrest at G1 phase. Cells were then washed twice with PBS and released in fresh media with treatment at a density of 1 x 10^6 cells/mL. Cells were collected at 12 h, washed twice with ice-cold PBS, and lysed by trituration using 1 mL per 5 x 10^7 cells of 0.5% sodium deoxycholate, 12 mM sodium lauryl sarcosine, and 50 mM triethylammonium bicarbonate, pH 8.0. Lysates were heated at 95 °C for 5 min and water bath sonicated at room temperature (RT) for 5 min. Bicinchoninic acid protein assay (Pierce) was performed to determine protein concentration. Disulfide bridges were reduced with 5 mM tris(2-carboxyethyl)phosphine (final concentration) at RT for 30 min with subsequent treatment with 10 mM iodoacetamide (final concentration) at RT in the dark for 30 min. Solutions were diluted 1:5 (v:v) with 50 mM triethylammonium bicarbonate. Proteins were cleaved with sequencing grade trypsin (Promega) at 1:100 (enzyme:protein) for 4 h at 37 °C followed by a second aliquot of trypsin 1:100 (enzyme:protein) overnight at 37 °C. Samples were acidified with 0.5% trifluoroacetic acid (final concentration), vortexed rapidly for 5 min, and centrifuged (16,000 x g for 5 min, RT) to pellet sodium deoxycholate. Supernatants were transferred to new microcentrifuge tubes and 20 µg of total peptide were desalted using C18 StageTips as previously described2. On-column dimethyl labeling using C18 StageTips was performed as previously described3. Briefly, StageTips were equilibrated with 20 μL of 250 mM 2-(N-morpholino)ethanesulfonic acid (MES) pH 5.5. Tryptic peptides were dimethyl labeled using 60 mM sodium cyanoborohydride, 0.4% formaldehyde, and 250 mM MES pH 5.5 for 10 min. Dimethyl labeled peptides were eluted from StageTips using 20 μL of 80% acetonitrile with 0.1% trifluoroacetic acid and lyophilized to dryness. Due to the nature of comparing 4 sample groups and being limited to 3 channels for stable isotope reductive amination labeling, two independent multiplexed experiments were run with each

[2] = system: asynchronous CEM cells; test: Quantitative global proteomics (nLC-MS/MS), asynchronous cells; type: cell-based, human
Method: as §1
as §2, with “Due to the nature of comparing 4 sample groups and being limited to 3 channels for stable isotope reductive amination labeling, two independent multiplexed experiments were run with each” left out

[3] = 1 µM VE-822, 12 h, analyses #1-#3

Compound | Protein expression level normalized to control (NT): Eukaryotic translation initiation factor 6 (EIF6) [1] | Protein expression level normalized to control (NT): Ribonucleoside-diphosphate reductase subunit M2 (RRM2) [1] | Protein expression level normalized to control (NT): Translationally-controlled tumor protein (TPT1) [1] | decrease of RRM1 protein level ([1]; following ATR inhibition, 12 h) [%] | decrease of RRM2 protein level ([1]; following ATR inhibition, 12 h) [%] | decrease of thymidylate synthase protein level ([1]; following ATR inhibition, 12 h) [%] | RNR Level [1] | dCK Level [1] | Protein expression level normalized to control (NT): Apoptosis regulatory protein Siva (SIVA1) [2, 3] | Protein expression level normalized to control (NT): Aspartate--tRNA ligase, cytoplasmic (DARS) [2, 3] | Protein expression level normalized to control (NT): Eukaryotic translation initiation factor 2 subunit 3 (EIF2S3;EIF2S3L) [2, 3] | Protein expression level normalized to control (NT): GA-binding protein alpha chain (GABPA) [2, 3] | observed fold decrease in total RRM2 protein (proteomic nLC-MS/MS) ([2]; asynchronous CEM, VE-822 1 µM, 12 h) [fold] | Protein expression level normalized to control (NT): Eukaryotic translation initiation factor 6 (EIF6) ([1]; listed as DI-82) | Protein expression level normalized to control (NT): Ribonucleoside-diphosphate reductase subunit M2 (RRM2) ([1]; listed as DI-82) | Protein expression level normalized to control (NT): Translationally-controlled tumor protein (TPT1) ([1]; listed as DI-82)
CNCc1ccc(-c2cc(-c3nc(-c4ccc(S(=O)(=O)C(C)C)cc4)cnc3N)on2)cc1 [VE-822] | 1.09 and 1.10 and 1.08 | 0.57 and 0.45 and 0.53 | 0.80 and 0.79 and 0.85 | > 20 | > 20 | > 20 | ↓ | ⟷ | 0.5843 and 0.5702 and 0.5605 | 0.9056 and 0.9095 | 0.9499 and 0.9479 and 0.9485 | 0.6147 and 0.6159 and 0.6369 | 0.77 | – | – | –
COc1ccc(-c2nc([C@@H](C)Sc3nc(N)cc(N)n3)c(C)s2)cc1OCCNS(C)(=O)=O [dCKi] | – | – | – | – | – | – | ⟷ | ⟷ | – | – | – | – | – | 1.00 and 0.98 and 0.95 and 0.99 | 1.17 and 0.99 and 1.08 and 1.15 | 0.99 and 0.98 and 0.95
